From PubChem BioAssay (NCI)
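Where inhibition never reached the appropriate level, the endpoint shown equals the highest concentration tested. Otherwise, values were interpolated linearly from a five-concentration, 48-hour dose response in 96-well plates. GI50 marks 50% less growth. TGI is the concentration that stops growth completely.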

What was measured:
Test in all cases: NCI tumour cell line growth inhibition, 48 h
[1] = tested on: 786-0 renal
[2] = tested on: A498 renal
[3] = tested on: A549 NSCLC
[4] = tested on: ACHN renal
[5] = tested on: BT-549 breast
[6] = tested on: CAKI-1 renal
[7] = tested on: CCRF-CEM leukemia
[8] = tested on: COLO 205 colon
[9] = tested on: DU-145 prostate
[10] = tested on: EKVX NSCLC
[11] = tested on: HCC-2998 colon
[12] = tested on: HCT-116 colon
[13] = tested on: HCT-15 colon
[14] = tested on: HL-60(TB) leukemia
[15] = tested on: HOP-62 NSCLC
[16] = tested on: HOP-92 NSCLC
[17] = tested on: HS 578T breast
[18] = tested on: HT29 colon
[19] = tested on: IGROV1 ovarian
[20] = tested on: K-562 leukemia
[21] = tested on: KM12 colon
[22] = tested on: LOX IMVI melanoma
[23] = tested on: M14 melanoma
[24] = tested on: MALME-3M melanoma
[25] = tested on: MCF7 breast
[26] = tested on: MDA-MB-231 breast
[27] = tested on: MDA-MB-435
[28] = tested on: MOLT-4 leukemia
[29] = tested on: NCI-H226 lung
[30] = tested on: NCI-H23 lung
[31] = tested on: NCI-H460 lung
[32] = tested on: NCI-H522 lung
[33] = tested on: NCI/ADR-RES ovarian
[34] = tested on: OVCAR-3 ovarian
[35] = tested on: OVCAR-4 ovarian
[36] = tested on: OVCAR-5 ovarian
[37] = tested on: OVCAR-8 ovarian
[38] = tested on: PC-3 prostate
[39] = tested on: RPMI-8226 leukemia
[40] = tested on: RXF 393 renal
[41] = tested on: SF-268 CNS
[42] = tested on: SF-295 CNS
[43] = tested on: SF-539 CNS
[44] = tested on: SK-MEL-2 melanoma
[45] = tested on: SK-MEL-28 melanoma
[46] = tested on: SK-MEL-5 melanoma
[47] = tested on: SK-OV-3 ovarian
[48] = tested on: SN12C renal
[49] = tested on: SNB-19 CNS
[50] = tested on: SNB-75 CNS
[51] = tested on: SR leukemia
[52] = tested on: SW-620 colon
[53] = tested on: T-47D breast
[54] = tested on: TK-10 renal
[55] = tested on: U251 CNS
[56] = tested on: UACC-257 melanoma
[57] = tested on: UACC-62 melanoma
[58] = tested on: UO-31 renal
[59] = tested on: MDA-N

Work on COc1cc(/C=N/NC(=O)c2cnn3c2NC(c2ccccc2)C3)ccc1OC1CCCC1 (stereo not given) yielded a GI50 [1] of 0.639 µM, a TGI [1] of 3.73 µM and a GI50 [2] of 0.407 µM. It also gave a TGI [2] of 2.28 µM, a GI50 [3] of 0.731 µM and a TGI [3] of 3.86 µM. The GI50 [4] was 0.666 µM, the TGI [4] was 6.04 µM and the GI50 [5] was 1.46 µM. The TGI [5] was 5.74 µM, the GI50 [6] was 0.556 µM and the TGI [6] was 5.01 µM. For the same molecule, the GI50 [7] was 0.691 µM, the TGI [7] was 10.8 µM and the GI50 [8] was 0.59 µM. The TGI [8] was 7.53 µM, the GI50 [9] was 1.06 µM and the TGI [9] was 7.03 µM. It also gave a GI50 [10] of 1.51 µM, a TGI [10] of 14 µM and a GI50 [11] of 3.19 µM. For the same molecule, the TGI [11] was 19.7 µM, the GI50 [12] was 0.518 µM and the TGI [12] was 3.46 µM. For the same molecule, the GI50 [13] was 0.5 µM, the TGI [13] was 10.8 µM and the GI50 [14] was 0.384 µM. For the same molecule, the TGI [14] was 3.93 µM, the GI50 [15] was 0.83 µM and the TGI [15] was 6.47 µM. It also gave a GI50 [16] of 0.684 µM, a TGI [16] of 3.69 µM and a GI50 [17] of 0.705 µM. It also gave a TGI [17] of 4.14 µM, a GI50 [18] of 0.467 µM and a TGI [18] of 8.55 µM. It also gave a GI50 [19] of 0.723 µM, a TGI [19] of 9.4 µM and a GI50 [20] of 0.348 µM. It also gave a TGI [20] greater than 30.4 µM, a GI50 [21] of 0.39 µM and a TGI [21] of 4.46 µM. For the same molecule, the GI50 [22] was 0.581 µM, the TGI [22] was 2.21 µM and the GI50 [23] was 0.646 µM. The TGI [23] was 5.19 µM, the GI50 [24] was 1.02 µM and the TGI [24] was 4.28 µM. The GI50 [25] was 0.373 µM, the TGI [25] was 4.07 µM and the GI50 [26] was 1.67 µM. The TGI [26] was 7.85 µM, the GI50 [27] was 0.258 µM and the TGI [27] was 1.28 µM. It also gave a GI50 [28] of 1.23 µM, a TGI [28] of 11.1 µM and a GI50 [29] of 1.64 µM. The TGI [29] was 6.12 µM, the GI50 [30] was 1.44 µM and the TGI [30] was 8.85 µM. It also gave a GI50 [31] of 0.389 µM, a TGI [31] of 1.56 µM and a GI50 [32] of 0.475 µM. It also gave a TGI [32] of 6.54 µM, a GI50 [33] of 0.884 µM and a TGI [33] of 4.35 µM. For the same molecule, the GI50 [34] was 0.262 µM, the TGI [34] was 0.697 µM and the GI50 [35] was 2.01 µM. For the same molecule, the TGI [35] was 7.75 µM, the GI50 [36] was 1.84 µM and the TGI [36] was 10.9 µM. For the same molecule, the GI50 [37] was 1.57 µM, the TGI [37] was 7.61 µM and the GI50 [38] was 0.503 µM. For the same molecule, the TGI [38] was 3.44 µM, the GI50 [39] was 0.527 µM and the TGI [39] was 4.91 µM. It also gave a GI50 [40] of 0.357 µM, a TGI [40] of 1.47 µM and a GI50 [41] of 1.88 µM. It also gave a TGI [41] of 13.1 µM, a GI50 [42] of 0.367 µM and a TGI [42] of 1.66 µM. For the same molecule, the GI50 [43] was 0.537 µM, the TGI [43] was 1.99 µM and the GI50 [44] was 0.948 µM. For the same molecule, the TGI [44] was 6.06 µM, the GI50 [45] was 1.25 µM and the TGI [45] was 9.15 µM. The GI50 [46] was 0.59 µM, the TGI [46] was 4.77 µM and the GI50 [47] was 1.57 µM. The TGI [47] was 8.49 µM, the GI50 [48] was 1.85 µM and the TGI [48] was 9.61 µM. For the same molecule, the GI50 [49] was 0.923 µM, the TGI [49] was 10.9 µM and the GI50 [50] was 0.207 µM. It also gave a TGI [50] of 0.778 µM, a GI50 [51] of 0.252 µM and a TGI [51] of 3.78 µM. The GI50 [52] was 0.468 µM, the TGI [52] was 2.38 µM and the GI50 [53] was 0.704 µM. It also gave a TGI [53] of 10.4 µM, a GI50 [54] of 4.06 µM and a TGI [54] of 16.3 µM. It also gave a GI50 [55] of 0.92 µM, a TGI [55] of 5.91 µM and a GI50 [56] of 1.45 µM. It also gave a TGI [56] of 12 µM, a GI50 [57] of 0.573 µM and a TGI [57] of 3.67 µM. It also gave a GI50 [58] of 1.22 µM and a TGI [58] of 6.59 µM.

In the case of CC(=O)n1[nH]c(=O)n(-c2ccc(Cl)cc2)c1=O, the TGI [1] is reported as greater than 100 µM, the TGI [3] is reported as greater than 100 µM and the TGI [4] is reported as greater than 100 µM. It also gave a TGI [5] greater than 100 µM, a TGI [6] greater than 100 µM and a TGI [7] greater than 100 µM. For the same molecule, the TGI [8] was greater than 100 µM, the TGI [9] was greater than 100 µM and the TGI [10] was greater than 100 µM. It also gave a TGI [11] greater than 100 µM, a TGI [12] greater than 100 µM and a TGI [13] greater than 100 µM. It also gave a TGI [14] greater than 100 µM, a TGI [15] greater than 100 µM and a TGI [18] greater than 100 µM. For the same molecule, the TGI [19] was greater than 100 µM, the TGI [20] was greater than 100 µM and the TGI [21] was greater than 100 µM. The TGI [22] was greater than 100 µM, the TGI [23] was greater than 100 µM and the TGI [24] was greater than 100 µM. It also gave a TGI [25] greater than 100 µM, a TGI [26] greater than 100 µM and a TGI [27] greater than 100 µM. It also gave a TGI [59] greater than 100 µM, a TGI [28] greater than 100 µM and a TGI [29] greater than 100 µM. It also gave a TGI [30] greater than 100 µM, a TGI [31] greater than 100 µM and a TGI [32] greater than 100 µM. It also gave a TGI [33] greater than 100 µM, a TGI [34] greater than 100 µM and a TGI [35] greater than 100 µM. The TGI [36] was greater than 100 µM, the TGI [37] was greater than 100 µM and the TGI [38] was greater than 100 µM. It also gave a TGI [39] greater than 100 µM, a TGI [40] greater than 100 µM and a TGI [41] greater than 100 µM. For the same molecule, the TGI [42] was greater than 100 µM, the TGI [44] was greater than 100 µM and the TGI [45] was greater than 100 µM. For the same molecule, the TGI [46] was greater than 100 µM, the TGI [47] was greater than 100 µM and the TGI [48] was greater than 100 µM. The TGI [49] was greater than 100 µM, the TGI [51] was greater than 100 µM and the TGI [52] was greater than 100 µM. It also gave a TGI [53] greater than 100 µM, a TGI [54] greater than 100 µM and a TGI [55] greater than 100 µM. For the same molecule, the TGI [56] was greater than 100 µM, the TGI [57] was greater than 100 µM and the TGI [58] was greater than 100 µM.
